pEC50: −log10 of the molar value.
Key:
[1] = tested on: endogenous LOXs in intact RAW 264.7 macrophage cells; assay: Western blot of Labelox B labeling in intact RAW 264.7 macrophage cells; assay type: cell-based
Text: described in the IC50 determination assay. Michaelis-Menten plots, Lineweaver-Burk plots, Km, and Vmax, are generated using GraphPad Prism 8.3.0.
1.5. Kits-Wilson kinetic analysis […]
enzyme to get a reversible complex, E*I. The dissociation constant of inhibitor (Ki) is from the formation […]
E-I. The inactivation rate constant (ki) is to describe the rate of E-I generation. To determine these inactivation parameters, Kitz-Wilson analysis was employed. The procedure has been detailed previously […]
1.6. Immunoblotting Analysis
Raw 264.7 cells were seeded in a 6-well plate at a density of 5x10^5 cells per well in high glucose DMEM media supplemented with 1% penicillin/streptomycin, 10% fetal bovine serum (FBS) (Costar Europe, Badhoevedrop, The Netherlands) at 37°C and cultured overnight. Afterward, cells were treated with the desired concentration of Labelox B at the expected time. Then, the cells were harvested and lysed with RIPA buffer containing 1X PIC. […]
Later, 30 μl of each sample was used for immunoblotting analysis. […] After washing, the blotting bands were detected with enhanced chemiluminescence (ECL) solution (GE Healthcare, Amersham, UK). […]
A549 cells were lysed by RIPA buffer supplemented with 1x PIC. After sonication and centrifugation, the supernatant was collected, and the protein concentration was determined by a Pierce BCA Protein Assay Kit (Thermo Fisher Scientific, USA). […]

15-LOX-2 = target: T1, 15-LOX-2 (Homo sapiens, UniProt O15296); assay: Sandwich ELISA of Labelox B biotinylation in A549 cell lysate, 15-LOX-2 capture; assay type: biochemical; conditions: HRP-streptavidin detection, read-out: EC50 of labeling
T1 construct: endogenous in cells; host or cells: A549 cell lysate
T1 sequence (O15296 1-676): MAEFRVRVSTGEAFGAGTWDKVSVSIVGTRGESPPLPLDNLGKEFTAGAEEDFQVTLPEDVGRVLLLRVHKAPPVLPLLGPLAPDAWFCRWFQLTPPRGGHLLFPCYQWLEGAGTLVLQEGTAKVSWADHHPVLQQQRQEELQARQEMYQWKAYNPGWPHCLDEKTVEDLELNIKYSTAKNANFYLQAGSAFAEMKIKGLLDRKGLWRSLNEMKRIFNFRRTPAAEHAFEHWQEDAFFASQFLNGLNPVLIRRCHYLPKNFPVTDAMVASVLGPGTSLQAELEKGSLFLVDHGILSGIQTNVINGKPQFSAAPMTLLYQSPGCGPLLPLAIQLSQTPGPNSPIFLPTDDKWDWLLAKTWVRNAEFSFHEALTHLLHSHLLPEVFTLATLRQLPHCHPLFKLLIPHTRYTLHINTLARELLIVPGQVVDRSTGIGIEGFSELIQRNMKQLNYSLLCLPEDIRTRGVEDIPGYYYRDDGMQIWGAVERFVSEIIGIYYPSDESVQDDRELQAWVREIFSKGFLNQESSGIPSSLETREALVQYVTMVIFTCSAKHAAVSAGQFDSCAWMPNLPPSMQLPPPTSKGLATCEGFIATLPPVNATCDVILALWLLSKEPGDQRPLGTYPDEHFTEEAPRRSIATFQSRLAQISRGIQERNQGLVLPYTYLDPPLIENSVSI
Description: Labelox B efficiently labels endogenous LOXs. Lipoxygenase labeling by Labelox B was investigated using cell‐based assays. As a first step, labeling efficiency was estimated in intact RAW 264.7 macrophage cells that were treated with Labelox B in concentrations ranging between 1 μM and 100 μM with incubation times between 0.5 h and 6 h. […] As a next step, a sandwich ELISA assay was established in order to find proof that probe Labelox B is indeed labeling proteins with lipoxygenase enzyme activity. Towards this aim, A549 cell lysates were treated with sub‐micromolar to micromolar concentrations of Labelox B. Subsequently, the endogenous LOXs were captured on an anti‐LOX antibody precoated 96‐well plate followed by detection of Labelox B mediated biotinylation using HRP‐conjugated streptavidin. […] Furthermore, probe Labelox B enabled visualization of localized LOX activity in living cells (Figure 2 c). […] The fluorescence intensity increased with increasing doses of Labelox B and labeling was observed throughout the cells in the cytoplasm and the nucleus of A549.
Figure 2 Labelox B labels endogenous LOXs in a dose‐ and time‐dependent manner. a, b) Western blot analysis of Labelox B labeled LOXs in intact RAW 264.7 for indicated doses and time points. […] The pictures were captured by a Leica DM4000b fluorescence microscope.

Compound: CCCCCC#CCC#CCOC(=O)CCCC[C@@H]1SC[C@@H]2NC(=O)N[C@@H]21 [Labelox B (3)]
- Labeling of proteins with the size of endogenous LOXs ([1]; 1 μM to 100 μM, 0.5 h to 6 h): dose and time‐dependent manner
- Cell permeability ([1]; labels effectively in half an hour at 25 μM): sufficiently cell‐permeable
- pEC50 (15-LOX-2): ~5.46

Reference: article PMC8518382, “Identification of a Bromodomain‐like Region in 15‐Lipoxygenase‐1 Explains Its Nuclear Localization” (Angewandte Chemie (International Ed. in English), 2021)
